Data reported in article PMC8140105 (Scientific Reports, 2021).
Values joined by “and” are separate entries in the source; they are usually repeats but may differ in a detail not shown here. Identical values can stand only once.

Assays:
BV-2 cells = assay: Morphological analysis (ameboid versus branched cells); format: cell-based, murine; conditions: 20 h, n = 6
Method: We investigated the morphology since microglia change their morphology from a branched structure to a more round, ameboid structure after activation. BV-2 cells were seeded in 1 × 10^4 cells/well in a 24-well plate (360 µL); this way direct cell–cell contacts, which have an influence on morphology, are avoided. Four hours post-seeding, cells were treated with 40 µL peptide, placebo (H2O), medium or positive control (LPS 1 µg/mL). For the assessment of the morphology, one picture in the center of each well (100 × magnification) was taken after twenty hours with an Olympus CKX53 phase-contrast microscope equipped with an XC30 CCD camera (Olympus NV, Antwerp, Belgium). The number of branched and ameboid cells was counted with the cell counter plugin of ImageJ.

[1] = Ex vivo metabolization in serum, tissue and faeces homogenates; format: in vitro ADME, ICR-CD-1 mice; conditions: UPLC-UV/MS; for T1/2 / Metabolites: 37 °C; for T1/2: first order kinetics
Method: Peptide solution (0.1 mg/mL) was incubated with serum, brain, liver, kidney, colon or faeces homogenate at 37 °C. After 0, 5, 10, 30 and 60 min, aliquots were taken for UPLC-UV/MS analysis. Preparation of the tissue homogenates and UPLC-UV/MS parameters are given in supplementary information (Supplementary methods S3-S4). The half-live was calculated using the following equation:4 T1/2=-ln(2)/Slope where the slope is defined by linear regression assuming first order kinetics.
Supplementary method S3: Tissue homogenate preparation
Preparation of Krebs-Henseleit buffer (pH 7.4) (KH-buffer)
The powdered medium was dissolved in 900 mL water while stirring. To this solution, 0.3790 g CaCl2×2H2O and 2.098 g NaHCO3 was subsequently added while stirring. NaOH or HCl was used to adjust to pH 7.4. This solution was then further diluted to 1000 mL using ultrapure […]
Preparation of tissue homogenates
- The liver (n = 1), kidneys (n = 6), brains (n = 3), colons (n = 4) and faeces (0.196 g) of ICR-CD-1 mice were collected.
- After cleaning and rinsing the tissues using ice-cold KH buffer, the tissues were cut in little pieces and transferred into a 50 mL tube to which 36 mL ice-cold KH buffer was added.
- The tissues were then homogenized with at tissue homogenizer.
- After the larger particles were allowed to settle for about 30 minutes at 5°C, approximately 25 mL of the middle layer was transferred into a 50 mL Falcon tube using a plastic pipette.
- After shaking the homogenates, the homogenates were dispensed into 2 mL Eppendorf tubes, and stored at -35°C until use.
- The protein content of the homogenates were determined using the Pierce Modified Lowry […]
- Just before use, the homogenates were diluted to a protein concentration of 0.6 mg/mL (i.e.
300 µg / 500 µL) with KH buffer.
- Into a 1.5 ml Protein LoBind tube, 900 µl of serum/tissue extract (500 µl of homogenate/serum and 400 µl of KH buffer, pH 7.4) was transferred.
- After temperature-equilibration at 37°C for 15 min while shaking at 750 rpm, 100 µl of peptide solution (0.1 mg/mL) was added followed by continued incubation at 37°C (while shaking), with […] aliquots taken after 0, 5, 10, 30 and 60 minutes.
- The aliquots were immediately transferred into 500 µl Protein LoBind Eppendorf tubes containing 100 µl of 1% V/V trifluoroacetic acid solution in water, heated for 5 minutes at 95°C, and cooled for 30 minutes in an ice-bath.
- The samples were then centrifuged at 16,000 g for 5 minutes at 5°C.
- The supernatants was then analyzed by UPLC-UV/MS.
Supplementary method S4: UPLC-UV/MS parameters ex vivo metabolization
The analytical parameters of the UPLC-UV/MS method for the ex vivo metabolization are given […]
Table 3: Analytical parameters of UPLC method […]
Needle wash H2O/ACN/DMSO (45/45/10), post injection (6 s)
Seal wash Methanol/H2O (10/90)

BV-2 microglia cells [2] = assay: ROS assay (fluorometric intracellular ROS kit); format: cell-based, murine; conditions: BV-2 cells, 24 h treatment, fluorescence, n = 12
Method: Microglia activation is accompanied by an increased reactive oxygen species (ROS) production. The ROS assay was performed using a fluorometric intracellular ROS kit according to the supplier’s protocol (Sigma-Aldrich, Diegem, Belgium). In brief, 4 × 10^4 cells/well were seeded in a black 96-well plate. Four hours post seeding, 100 µL of master reaction mix was added to the wells and incubated for 1 h after which cells were treated with PapRIV dissolved in PBS for 24 h. Fluorescence intensity was measured using an EnVision fluorometric plate reader at λex = 492/λem = 535 nm (Perkin Elmer, Zaventem, Belgium).

[3] = Brain-to-blood transport (efflux); format: in vivo, ICR-CD-1 mice; conditions: kout not significantly different from zero
Method: Briefly, 0.1 µmol of the lyophilized peptide was dissolved in 100 µL of phosphate buffer (pH 7.4, 25 mM). A Iodo-Gen coated tube (Thermo Scientific, Merelbeke, Belgium) was first of all rinsed with 1 mL of phosphate buffer. Subsequently, 50 µL of sodium iodide solution (1.1 µmol/mL) and 1 mCi of Na^125I solution (Perking Elmer, Zaventem, Belgium) were transferred into this Iodo-Gen coated tube. The oxidation reaction was allowed to proceed for six minutes at room temperature, after which the iodonium solution was transferred to 50 µL of peptide solution (1 mM). The iodination reaction of the peptide was allowed to proceed for another six minutes at room temperature. […]
We quantified the amount of peptide exported out of the brain as previously described. […] Then, the whole brain was collected, weighed and measured in a gamma counter for 5 min. Fifty µL of serum, which was obtained by centrifuging the collected blood at 10,000g during 15 min at 21 °C, and the background was also measured in a gamma counter. The efflux half-life was calculated from the linear regression of the natural logarithm of the residual radioactivity in brain versus time as follows:3 t1/2=ln(2)/kout where kout is defined as the efflux rate constant calculated as the negative value of the slope of the linear regression, applying first order kinetics.

BV-2 microglia cells [4] = assay: MTT viability of BV-2 microglia cells; format: cell-based, murine

SDLPFEH [PapRIV, heptapeptide (SDLPFEH) quorum sensing peptide originating from the Bacillus cereus group; synthetic, purchased from GL Biochem]
fraction of ameboid cells (BV-2 cells): increased | T1/2 ([1]; mouse brain homogenate 0.6 mg/mL protein in KH buffer pH 7.4, peptide solution 0.1 mg/mL added, 0–60 min): 522.9 min | Metabolites ([1]; mouse brain homogenate, 0–60 min): DLPFEH, LPFEH | metabolization in colon tissue ([1]; mouse colon homogenate 0.6 mg/mL protein in KH buffer pH 7.4, 37 °C, 0–60 min): no metabolization was observed | T1/2 ([1]; mouse faeces homogenate 0.6 mg/mL protein in KH buffer pH 7.4, peptide solution 0.1 mg/mL added, 0–60 min): 89.7 min | Metabolites ([1]; mouse faeces homogenate, 0–60 min): DLPFEH | T1/2 ([1]; mouse kidney homogenate 0.6 mg/mL protein in KH buffer pH 7.4, peptide solution 0.1 mg/mL added, 0–60 min): 20 min and 19.8 min | Metabolites ([1]; mouse kidney homogenate, 0–60 min): DLPFEH, LPFEH | T1/2 ([1]; mouse liver homogenate 0.6 mg/mL protein in KH buffer pH 7.4, peptide solution 0.1 mg/mL added, 0–60 min): 285.7 min | Metabolites ([1]; mouse liver homogenate, 0–60 min): DLPFEH, LPFEH | T1/2 ([1]; serum (500 µl + 400 µl KH buffer pH 7.4 + 100 µl peptide solution 0.1 mg/mL), shaking 750 rpm, aliquots 0, 5, 10, 30, 60 min): 25 min and 24.8 min | Metabolites ([1]; serum, 0–60 min): DLPFEH, LPFEH, LPFE, LPF, SDLPF, DLPF | intracellular ROS (BV-2 microglia cells [2]): increase | efflux from brain back to the circulation [3]: no efflux | viability of BV-2 microglia cells (BV-2 microglia cells [4]; 25 µM treatment, non-significant decrease): 94.8% | toxic effects towards BV-2 microglia cells (BV-2 microglia cells [4]; MTT, up to 25 µM): no significant toxic effects
